As usually defined, the IC50 is the concentration that inhibits the measured activity by half.

Where a name gives a salt, the structure may show the parent alone.

The source of these data is patent US20070004736A1, “Imidazole derivative, process for producing the same, and use” (priority 2002, published 2007).

The target in this assay is human FXa (Homo sapiens, UniProt P00742). The assay is described as follows: Human activated blood coagulation factor X (FXa) inhibitory activity. Type of assay: biochemical. As to conditions: concentration at which 50% of FXa activity was inhibited; substrate S-2765, 37° C., absorbance at 405 nm. The method, then: (1) Human Activated Blood Coagulation Factor X (FXa) Inhibitory Activity
human FXa, sequence (P00742 235-488 limits assumed): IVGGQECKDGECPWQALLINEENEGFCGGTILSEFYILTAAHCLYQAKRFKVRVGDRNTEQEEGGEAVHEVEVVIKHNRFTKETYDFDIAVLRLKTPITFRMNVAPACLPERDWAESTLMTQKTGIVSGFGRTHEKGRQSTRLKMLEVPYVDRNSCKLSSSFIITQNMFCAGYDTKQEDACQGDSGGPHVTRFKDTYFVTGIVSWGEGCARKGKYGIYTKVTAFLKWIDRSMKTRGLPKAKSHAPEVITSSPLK
human FXa, sequence (P00742 41-179 partner limits assumed): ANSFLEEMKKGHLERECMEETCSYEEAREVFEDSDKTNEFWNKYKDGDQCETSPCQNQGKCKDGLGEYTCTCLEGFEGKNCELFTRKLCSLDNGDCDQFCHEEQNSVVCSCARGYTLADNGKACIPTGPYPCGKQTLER
Experimental method: 225 μl of a 0.05 M Tris-HCl buffer (pH 8.3) containing 0.145 M sodium chloride and 2 mM calcium chloride, 5 μl of a sample (a test compound was dissolved in dimethyl sulfoxide) and 10 μl of human FXa (0.3 unit/ml) were added to a 96-well microplate and incubated at 37° C. for about 10 minutes. Then, 10 μl of a substrate (3 mM, S-2765) was added to the plate and incubated at 37° C. for 10 minutes. After stopping the reaction by adding 25 μl of a 50% aqueous acetic acid, a change in absorbance at 405 nm was measured with a spectrophotometer, and the concentration (IC50) at which 50% of FXa activity was inhibited was calculated.
Compound `Cc1ncc(C2CCN(C(=O)CCS(=O)(=O)c3ccc4cc(Cl)ccc4c3)CC2)n1C` [Example 24, 1-{3-[(6-Chloro-2-naphthyl)sulufonyl]propanoyl}-4-(1,2-dimethyl-1H-imidazol-5-yl)piperidine] displayed an IC50 of 31 nM.
As for `Cc1ncc2n1CCN(C1CCN(C(=O)CCS(=O)(=O)c3ccc4cc(Cl)ccc4c3)CC1)C2=O` [Example 38, 7-(1-{3-[(6-Chloro-2-naphthyl)sulfonyl]propanoyl}-4-piperidinyl)-3-methyl-6,7-dihydroimidazo[1,5-a]pyrazin-8(5H)-one], the figure is 11 nM; as for `Cc1ncn2c1C(=O)N(C1CCN(C(=O)CCS(=O)(=O)c3ccc4cc(Cl)ccc4c3)CC1)CC2` [Example 39, 7-(1-{3-[(6-Chloro-2-naphthyl)sulfonyl]propanoyl}-4-piperidinyl)-1-methyl-6,7-dihydoroimidazo[1,5-a]pyrazin-8(5H)-one], 11 nM; as for `Cc1nc(C)n(CCC2CCN(C(=O)CCS(=O)(=O)c3ccc4cc(Cl)ccc4c3)CC2)c1C` [Example 109, 1-{3-[(6-Chloro-2-naphthyl)sulfonyl]propanoyl}-4-[2-(2,4,5-trimethyl-1H-imidazol-1-yl)ethyl]piperidine], 45 nM.
`Cc1nc(C)n2c1CN(C1CCN(C(=O)CCS(=O)(=O)c3ccc4cc(Cl)ccc4c3)CC1)C2=O` [Example 72, 2-(1-{3-[(6-Chloro-2-naphthyl)sulfonyl]propanoyl}-4-piperidinyl)-5,7-dimethyl-1,2-dihydro-3H-imidazo[1,5-c]imidazol-3-one]: the IC50 was 7.2 nM.
As to `Cc1nccn1CCC1CCN(C(=O)CCS(=O)(=O)c2ccc3cc(Cl)ccc3c2)CC1` [Example 102, 1-{3-[(6-Chloro-2-naphthyl)sulfonyl]propanoyl}-4-[2-(2-methyl-1H-imdazol-1-yl)ethyl]piperidine hydrochloride], it took 43 nM to reach half-maximal inhibition (IC50). Compared with the last compound, the IC50 is about 6-fold higher.
In turn, `CCc1ncc2n1C(=O)N(C1CCN(C(=O)CCS(=O)(=O)c3ccc4cc(Cl)ccc4c3)CC1)C2` [Example 42, 2-(1-{3-[(6-Chloro-2-naphthyl)sulfonyl]propanoyl}-4-piperidinyl)-5-ethyl-1,2-dihydro-3H-imidazo[1,5-c]imidazol-3-one] registered an IC50 of 7.1 nM.
